# Reference: ChEMBL document CHEMBL3886554, “Ring-fused bicyclic pyridyl derivatives as FGFR4 inhibitors” (2016)
# Biological target: Fibroblast growth factor receptor 4 (Homo sapiens, UniProt P22455)
# Assay: Biochemical Kinase Assay: Liquid handling and incubation steps were done on an Innovadyne Nanodrop Express equipped with a robotic arm (Thermo CatX, Caliper Twister II) and an incubator (Liconic STX40, Thermo Cytomat 2C450). The assay plates were prepared by addition of 50 nl per well of compound solution in 90% DMSO. The kinase reactions were started by stepwise addition of 4.5 ul per well of …
# Chain of Fibroblast growth factor receptor 4 (P22455 whole entry): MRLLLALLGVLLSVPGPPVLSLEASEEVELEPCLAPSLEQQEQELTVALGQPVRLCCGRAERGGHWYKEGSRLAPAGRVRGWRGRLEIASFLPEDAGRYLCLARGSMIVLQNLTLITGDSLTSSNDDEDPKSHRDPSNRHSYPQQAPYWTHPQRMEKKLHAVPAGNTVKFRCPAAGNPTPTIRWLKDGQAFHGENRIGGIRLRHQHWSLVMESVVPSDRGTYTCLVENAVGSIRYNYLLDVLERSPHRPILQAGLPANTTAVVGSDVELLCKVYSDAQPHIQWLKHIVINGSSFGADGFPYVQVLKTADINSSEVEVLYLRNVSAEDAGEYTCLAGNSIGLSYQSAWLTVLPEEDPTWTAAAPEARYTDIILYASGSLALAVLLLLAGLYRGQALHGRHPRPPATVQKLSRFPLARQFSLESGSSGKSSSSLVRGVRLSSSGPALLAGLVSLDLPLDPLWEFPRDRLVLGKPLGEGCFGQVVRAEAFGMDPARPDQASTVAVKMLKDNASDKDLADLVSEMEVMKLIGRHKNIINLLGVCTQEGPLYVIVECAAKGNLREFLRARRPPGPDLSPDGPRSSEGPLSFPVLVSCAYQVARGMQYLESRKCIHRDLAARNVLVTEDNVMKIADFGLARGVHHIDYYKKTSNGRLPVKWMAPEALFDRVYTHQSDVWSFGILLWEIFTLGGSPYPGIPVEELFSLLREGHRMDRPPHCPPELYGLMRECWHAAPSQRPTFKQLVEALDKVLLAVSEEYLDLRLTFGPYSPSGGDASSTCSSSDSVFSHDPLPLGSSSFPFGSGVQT
compound,measurement,value
CC(C)Oc1cc(NC(=O)N2CCCc3cc(CN(C)C(=O)CO)c(C=O)nc32)ncc1C#N,IC50,0.3 nM
